Consider 79 compounds from article PMC12040169 (PLOS Biology, 2025).

The nature of the series: in vitro. The note with it: human, hela cells, % viability.

For `Cc1ccc(NC(=O)C2C3C=CC(O3)C2C(=O)O)cc1` (stereo not shown) [CBK263670], the viability at 28.5 h, 10 µM is 91.4%.
Regarding `O=C(NC1CCCCC1)O[C@@H]1CO[C@H]2[C@@H]1OC[C@@H]2NS(=O)(=O)Cc1ccccc1` [CBK289467], the viability at 28.5 h, 10 µM came out at 87.8%.
Take `CN(C)CCNc1c(N)c(=O)oc2ccccc12` [CBK261472]: the viability at 28.5 h, 10 µM is 89.7%.
Turning to `COc1ccc([C@@]23CC[C@@H](NC(=O)Nc4ccnc5ccccc45)C[C@@H]2N(C)CC3)cc1OC` [CBK045699], the viability at 28.5 h, 10 µM came out at 100%.
In the case of `COc1cc(-c2cn3ccnc3c(N(C)CCN(C)C)n2)cc(OC)c1OC` [CBK066196], the viability at 28.5 h, 10 µM was 100%.
Take `Cc1cc(CC(=O)Nc2ccc3[nH]ccc3c2)on1` [CBK159690]: the viability at 28.5 h, 10 µM stood at 103%.
`Clc1cncc(-c2ccccc2)n1` [CBK113371]: the viability at 28.5 h, 10 µM amounted to 93.8%.
With `O=S(=O)(Cc1ccc(-c2nc(-c3ccncc3)no2)o1)c1ccccc1` [CBK288579], the viability at 28.5 h, 10 µM came to 96.6%.
Take `CN(C(=O)c1cccs1)c1ccc(Oc2ncc(C(F)(F)F)cc2Cl)cc1` [CBK161654]: the viability at 28.5 h, 10 µM came to 89.6%.
On to `CCn1c(CNC(=O)c2cc(C(C)C)on2)nc2ccccc21` [CBK281393], for which the viability at 28.5 h, 10 µM is 94.2%.
In the case of `COc1ccccc1N1CCN(CCCCNC(=O)c2ccc(Cl)cc2)CC1` [CBK074835], the viability at 28.5 h, 10 µM is 93%.
Turning to `O=C(c1cc2c(s1)CCC2)N1CCC[C@H]1[C@H](O)c1nccs1` [CBK284287], the viability at 28.5 h, 10 µM was determined as 92.5%.
Turning to `CN(C)CCCNC(=O)C1CCCN(c2nc3c(-c4ccccc4)csc3c(=O)[nH]2)C1` (stereo not shown) [CBK215504], the viability at 28.5 h, 10 µM was found to be 94.6%.
The same measure for `Oc1c(CN2CCN(Cc3ccc4cccnc4c3O)CC2)ccc2cccnc12` [CBK261994]: 86.1%; for `NS(=O)(=O)c1ccc(CCNC(=O)c2ccccc2Oc2ccccc2)cc1` [CBK264394]: 89.4%.
As to `CC(C)(C)NC(=O)N1CCC(Nc2nccc(C(F)(F)F)n2)CC1` [CBK028788], the viability at 28.5 h, 10 µM is 113%.
For `c1cncc(CNc2cccc(OCCOc3nccnc3N3CCNCC3)c2)c1` [CBK200008], the viability at 28.5 h, 10 µM is 89.2%.
The same measure for `CC(=O)N1C[C@@H]2CCCCN(CCc3ccc(F)cc3)[C@@H]2C1` [CBK285495]: 112%; for `CCOc1ccc(CCC(=O)N2CCCc3c(cnn3C)C2)cc1` [CBK285276]: 85.8%.
For the compound `O=C(CSc1ccc2nnc(-c3ccccc3)n2n1)Nc1ccccc1` [CBK287513], the viability at 28.5 h, 10 µM stood at 82.7%.
On to `Cc1ccnc2nc(C(=O)OCC(=O)Nc3ccc4c(c3)CCC4)nn12` [CBK305853], for which the viability at 28.5 h, 10 µM came to 82.1%.
For `CN1CCC(C(=O)NC(=O)NC2CCCCC2)CC1` [CBK034825], the viability at 28.5 h, 10 µM is 112%.
Consider `CCOc1ccc(N2C(=O)CC(N3CCN(c4ccccn4)CC3)C2=O)cc1` (stereo not shown) [CBK263285], for which the viability at 28.5 h, 10 µM stood at 100%.
In the case of `O=C(N[C@H]1CCCC[C@H]1N1CCCC1)N[C@H]1CCCC[C@H]1N1CCCC1` [CBK003419], the viability at 28.5 h, 10 µM is 115%.
Turning to `COc1ccccc1NC(=O)C1=C(C)Nc2nnnn2C1c1ccc(OC)c([N+](=O)[O-])c1` (stereo not shown) [CBK293954], the viability at 28.5 h, 10 µM is 83.8%.
With `CC(=O)c1sc(=S)n(N(C)C)c1C` [CBK006774], the viability at 28.5 h, 10 µM was 91.6%.
Take `Cn1cnc2cc(-c3nnn[nH]3)ccc21` [CBK306265]: the viability at 28.5 h, 10 µM came out at 90.2%.
In the case of `COc1ccccc1Oc1ccc(S(=O)(=O)N2CCOCC2)cc1S(=O)(=O)N1CCOCC1` [CBK265176], the viability at 28.5 h, 10 µM turned out to be 97.2%.
The same measure for `CCN1CCC[C@@H]1CNC(=O)c1cc(Cl)nc(OC)c1` [CBK174692]: 88.3%; for `O=C(c1ccc(N2CCN(C3CC(=O)N(Cc4cccs4)C3=O)CC2)cc1)c1cccnc1` (stereo not shown) [CBK269040]: 98.5%.
`CNS(=O)(=O)c1cc(C(=O)N2CCN(c3ccccc3)CC2)ccc1OC` [CBK270192]: the viability at 28.5 h, 10 µM stood at 88.9%.
As for `O=C(O)CCCNC(=O)c1ccncc1` [CBK261146], the viability at 28.5 h, 10 µM was 104%.
As for `CCOc1cccc(-c2cncc(N3CCN(c4ccccn4)CC3)n2)c1` [CBK065985], the viability at 28.5 h, 10 µM worked out at 91.5%.
Regarding `COC(=O)c1cc(-c2c[nH]c3ccccc23)[nH]n1` [CBK241010], the viability at 28.5 h, 10 µM worked out at 92.5%.
The same measure for `COC1C(O)C(CO)OC1n1cc(I)c(=O)[nH]c1=O` (stereo not shown) [CBK201211]: 95.1%; for `CCCCCC/C=C/c1cnc2nc(NC(=O)NCC)ccc2c1` [CBK061880]: 93.3%; for `Cc1ccc(-c2noc(CNC(=O)CSc3ccccc3)n2)cc1` [CBK270199]: 91.5%.
For the compound `CCOc1ccc2[nH]c(C(=O)N(C)CCN3CCCCC3)c(C)c2c1` [CBK282699], the viability at 28.5 h, 10 µM worked out at 86.3%.
With `COC(=O)c1ccccc1NC(=O)c1c(C)c(-c2ccc(C)cc2)nc2ccccc12` [CBK263641], the viability at 28.5 h, 10 µM worked out at 94.9%.
For the compound `O=C(NC(Cc1ccsc1)c1nccs1)C1CC2C=CC1O2` (stereo not shown) [CBK285096], the viability at 28.5 h, 10 µM was determined as 91.9%.
Regarding `CCCC/C=C/c1cn2ccnc2c(NCCc2cccnc2)n1` [CBK066235], the viability at 28.5 h, 10 µM came to 105%.
For `O=C(CCn1c(C(F)(F)F)cc2cccnc21)N1CCC(O)CC1` [CBK284887], the viability at 28.5 h, 10 µM turned out to be 89.7%.
`CN1CCN(C(=O)C[C@@H]2CCNC[C@@H]2Cc2cc(CC3CCCCC3)on2)CC1` [CBK289151]: the viability at 28.5 h, 10 µM stood at 84.3%.
Consider `O=C(NC(c1ccccc1)c1ccccc1)N1CCCC(CO)C1` (stereo not shown) [CBK156036], for which the viability at 28.5 h, 10 µM amounted to 95.4%.
Turning to `CC(C)NC(=O)Cn1nnc(-c2cccc(C(F)(F)F)c2)n1` [CBK304275], the viability at 28.5 h, 10 µM was found to be 95.2%.
Turning to `O=C(O)Cc1nnnn1-c1ccccc1` [CBK262984], the viability at 28.5 h, 10 µM was found to be 102%.
As for `Cc1ccc2[nH]c(-c3ccccc3NC(=O)CCCC(=O)O)nc2c1` [CBK295154], the viability at 28.5 h, 10 µM was 86%.
With `Cc1c(CNCCN2CCCC2=O)c2ccccc2n1C` [CBK281519], the viability at 28.5 h, 10 µM is 84.6%.
On to `COc1ccc(S(=O)(=O)Nc2cccc(C(=O)N3CCOCC3)c2)cc1OC` [CBK039010], for which the viability at 28.5 h, 10 µM was 82.7%.
The same measure for `O=C(N[C@@H](Cn1cc(Cl)c(=O)[nH]c1=O)C(=O)O)C1CCCC1` [CBK289658]: 113%.
The value for `Cc1ccc(OCC(=O)Nc2ncn(Cc3cccnc3)n2)cc1` [CBK304888] was 85%; that for `COc1ccc([C@H]2CN(C(=O)c3ccccc3)[C@@H]3CCN(Cc4cccc(F)c4)C[C@H]23)cc1` [CBK285584] was 98.9%; that for `COc1ccc(C=CC(=O)ONC(=O)c2ccc(OC(F)F)cc2)cc1OC` [CBK296098] was 92.8%.
Take `c1coc(-c2cn3ccnc3c(Nc3ccc4[nH]ccc4c3)n2)c1` [CBK037361]: the viability at 28.5 h, 10 µM amounted to 91.9%.
On to `COc1ccc(C2C(C(=O)c3ccc(Cl)cc3)=C(O)C(=O)N2CCN(C)C)cc1OC` (stereo not shown) [CBK264660], for which the viability at 28.5 h, 10 µM was 103%.
For `NC(=O)C1CCN(Cc2nc(-c3cccc(C(F)(F)F)c3)no2)CC1` [CBK304276], the viability at 28.5 h, 10 µM was 97.4%.
`Cc1ccn(-c2ccc(N3CCNCC3)nn2)n1` [CBK304680]: the viability at 28.5 h, 10 µM came out at 97.4%.
For the compound `CCOc1ccc(C(=O)Nc2ccc(Cc3ccncc3)cc2)cc1[N+](=O)[O-]` [CBK262867], the viability at 28.5 h, 10 µM is 114%.
For the compound `COc1ccc(C(=O)NCc2ccccc2)c(OC)n1` [CBK200190], the viability at 28.5 h, 10 µM was 142%.
In the case of `CC(C)Nc1cccnc1N1CCN(C(=O)c2cc3cc(NS(=O)(=O)CCc4ccncc4)ccc3[nH]2)CC1` [CBK012661], the viability at 28.5 h, 10 µM turned out to be 95.8%.
Consider `Cc1nc2c(c(=O)[nH]1)CC[C@@H]1CN(C(=O)C3CCCCC3)C[C@H]21` [CBK284407], for which the viability at 28.5 h, 10 µM was determined as 102%.
In the case of `O=C(CN1CCCC(c2cccc(Cc3ccc(F)cc3)n2)C1)Nc1nccs1` (stereo not shown) [CBK286503], the viability at 28.5 h, 10 µM came out at 93.1%.
For `Cc1nn(C(C)C)c(C)c1CN(CCCN(C)C)Cc1ccco1` [CBK282978], the viability at 28.5 h, 10 µM was 86.8%.
Consider `Cc1nc(C(F)(F)F)ccc1C(=O)Nc1nc(CC(N)=O)cs1` [CBK305776], for which the viability at 28.5 h, 10 µM stood at 100%.
Take `CC1=C[C@@H](CNS(=O)(=O)c2cccs2)[C@H](C(C)C)C[C@H]1CC(=O)O` [CBK289210]: the viability at 28.5 h, 10 µM came to 92.4%.
The value for `CCN1CCC(Oc2nccnc2OCc2cc(C)on2)CC1` [CBK082962T] was 94.7%; that for `c1ccc(Oc2ccc(Nc3cccc(-c4ccc5ccccc5c4)n3)cc2)cc1` [CBK037636] was 112%; that for `COc1cc(CCc2cc(O)n3nc(-c4cccc(C)c4)c(C)c3n2)on1` [CBK285691] was 99.8%.
For `Cc1ccc(S(=O)(=O)NC(C)(C)CSc2nncn2N)cc1` [CBK266297], the viability at 28.5 h, 10 µM was 103%.
Regarding `Cc1ccc2nsnc2c1NC(=O)CN1CCN(c2ccc(F)cc2)CC1` [CBK269231], the viability at 28.5 h, 10 µM came out at 98.9%.
The same measure for `COc1ccccc1CC(=O)N[C@@H]1CCN(Cc2cccnc2)C[C@H]1O` [CBK307200]: 100%; for `Cc1sc(C(=O)Nc2ccc3ccccc3c2)cc1CC(=O)O` [CBK267710]: 96.4%; for `CCOC(=O)c1cc(-c2ccc(OC)cc2)nn1-c1ccc(C(=O)O)cc1` [CBK296133]: 87.9%.
As for `Cc1cc(C)cc(NS(=O)(=O)c2ccc(NC(=O)C(C)Oc3ccc(Cl)cc3Cl)cc2)c1` (stereo not shown) [CBK264894], the viability at 28.5 h, 10 µM was 108%.
The value for `CCn1cc(C2CN(S(=O)(=O)c3cc(C)c(OC)cc3C)CCO2)cn1` (stereo not shown) [CBK304225] was 84.9%; that for `C=CCNC(=O)N[C@H]1CCN2C(=O)c3ccccc3NC(=O)[C@@H]2C1` [CBK289568] was 102%; that for `COc1ccc(N2C(=O)CC(NNC(=O)CNC(C)=O)C2=O)cc1` (stereo not shown) [CBK267228] was 87.7%.
Regarding `NS(=O)(=O)c1ccc2nc(NC(=O)c3ccc(N4C(=O)CCC4=O)cc3)sc2c1` [CBK291192], the viability at 28.5 h, 10 µM amounted to 117%.
Take `c1nc(OCCN2CCOCC2)cc(N2CCCN(CCN3CCOCC3)CC2)n1` [CBK083647]: the viability at 28.5 h, 10 µM was determined as 103%.
